The text below walks through data of patent publication US10017550B2, “Mycobacterium tuberculosis porins and toxins and related methods” (priority 2011, dated 2018).

Assay [1] concerns M. Bovis BCG ΔMtpA + MspA. It counts as cell-based.
For assay [2], the system named is M. Bovis BCG ΔMtpA. It counts as cell-based. The settings on record: for Resistance factor: ratio MICΔMtpA/MICwt.
Assay [3] concerns M. Bovis BCG Wild-type. The assay is described as follows: microbe, parasite or virus in culture. It counts as cell-based. Conditions: Mycobacterium tuberculosis variant bovis BCG.
Assay [4] concerns M. Bovis BCG ΔMtpA + MtpA. It counts as cell-based.
In assay [5] the test system is wild-type M. bovis BCG in human monocyte-derived macrophages (HMDM). In kind it is cell-based.
Assay [6] deals with ΔMtpA mutant of M. bovis BCG in human monocyte-derived macrophages (HMDM). It counts as cell-based.
The nature of assay [7]: Channel activity analysis, planar lipid bilayer single channel recording. In kind it is biochemical.

≈ marks a conversion by molar mass, not a printed value. A value given as a limit tells only on which side of the number the result lay.

Consider `N[C@@H]1CON=C1O` [cycloserine], for which the “MIC for M. Bovis BCG ΔMtpA + MspA” value in assay [1] stood at 4 mg/L. For the same molecule, in assay [2], the “MIC for M. Bovis BCG ΔMtpA” value was 8 mg/L and the Resistance factor is 2. The same molecule returned an MIC in assay [3] (wild-type strain) of 4 mg/L (≈ 39.2 µM). Besides, the “MIC for M. Bovis BCG ΔMtpA + MtpA” value in assay [4] stood at 4 mg/L.

For `CC1(C)S[C@@H]2[C@H](NC(=O)[C@H](N)c3ccccc3)C(=O)N2[C@H]1C(=O)O` [Ampicillin], the “MIC for M. Bovis BCG ΔMtpA + MspA” value in assay [1] turned out to be 60 mg/L. Moreover, in assay [2], the “MIC for M. Bovis BCG ΔMtpA” value was found to be 960 mg/L, the “increased minimal inhibitory concentration (MIC) / resistance in the ΔMtpA strain” value turned out to be 32 fold and the Resistance factor is 32. In assay [3] (wild-type strain), this molecule gave an MIC of 30 mg/L (≈ 85.9 µM). Further, the “MIC for M. Bovis BCG ΔMtpA + MtpA” value in assay [4] is 60 mg/L.

`COc1c(N2C[C@@H]3CCCN[C@@H]3C2)c(F)cc2c(=O)c(C(=O)O)cn(C3CC3)c12` [Moxifloxacin] displayed an MIC in assay [3] (wild-type strain) of 0.5 mg/L (≈ 1.25 µM).

In turn, `CC1COc2c(N3CCN(C)CC3)c(F)cc3c(=O)c(C(=O)O)cn1c23` (stereo not shown) [Ofloxacin] came in with an MIC in assay [3] (wild-type strain) of 0.25 mg/L (≈ 0.692 µM).

Turning to `C[C@H]1COc2c(N3CCN(C)CC3)c(F)cc3c(=O)c(C(=O)O)cn1c23` [Levofloxacin], the MIC in assay [3] (wild-type strain) is 0.125 mg/L (≈ 0.346 µM).

On to `O=C(O)c1cn(C2CC2)c2cc(N3CCNCC3)c(F)cc2c1=O` [Ciprofloxacin], for which, in assay [1], the “MIC for M. Bovis BCG ΔMtpA + MspA” value is 2 mg/L. In assay [3], this molecule displayed an MIC of 1 mg/L (≈ 3.02 µM). Moreover, the “MIC for M. Bovis BCG ΔMtpA + MtpA” value in assay [4] turned out to be 2 mg/L.

With `CO[C@H]1/C=C/O[C@@]2(C)Oc3c(C)c(O)c4c(O)c(c(/C=N/N5CCN(C)CC5)c(O)c4c3C2=O)NC(=O)/C(C)=C\C=C\[C@H](C)[C@H](O)[C@@H](C)[C@@H](O)[C@@H](C)[C@H](OC(C)=O)[C@@H]1C` [Rifampicin], the MIC in assay [3] worked out at 0.008 mg/L (≈ 0.00972 µM).

Turning to `Nc1ccc(C(=O)O)c(O)c1` [p-aminosalicylic acid], the “MIC for M. Bovis BCG ΔMtpA + MspA” value in assay [1] was 2 mg/L. Further, in assay [2], the “MIC for M. Bovis BCG ΔMtpA” value was above 8 mg/L; the “change of resistance / MIC in the ΔMtpA mutant, in words” value is recorded as “more than eight-fold”; the Resistance factor is listed as above 4. Moreover, the MIC in assay [3] (wild-type strain) worked out at 2 mg/L (≈ 13.1 µM). The “MIC for M. Bovis BCG ΔMtpA + MtpA” value in assay [4] was determined as 2 mg/L.

Take `CCn1cc(C(=O)O)c(=O)c2cc(F)c(N3CCNCC3)cc21` [Norfloxacin]: in assay [1], the “MIC for M. Bovis BCG ΔMtpA + MspA” value was determined as 2 mg/L. Also, in assay [2], the “MIC for M. Bovis BCG ΔMtpA” value came out at 4 mg/L and the Resistance factor is on record as 4. In addition, the MIC in assay [3] (wild-type strain) is 1 mg/L (≈ 3.13 µM). Also, the “MIC for M. Bovis BCG ΔMtpA + MtpA” value in assay [4] came to 2 mg/L.

With “γ-interferon: human IFN-γ, induces nitric oxide synthase activity in macrophages”, the “bacteria recovered from stimulated HMDMs” value in assay [5] is reported as “drastic decrease in bacteria recovered”. Besides, in assay [6], the “survival in treated macrophages compared to untreated cells” value is given as “no significant difference”.

In the case of `O=C(N[C@H](CO)[C@H](O)c1ccc([N+](=O)[O-])cc1)C(Cl)Cl` [Chloramphenicol], the “MIC for M. Bovis BCG ΔMtpA + MspA” value in assay [1] came out at 8 mg/L. Besides, in assay [2], the “MIC for M. Bovis BCG ΔMtpA” value was found to be 64 mg/L, the “increased minimal inhibitory concentration (MIC) / resistance in the ΔMtpA strain” value is 16 fold and the Resistance factor amounted to 16. In assay [3] (wild-type strain), this molecule registered an MIC of 4 mg/L (≈ 12.4 µM). Besides, the “MIC for M. Bovis BCG ΔMtpA + MtpA” value in assay [4] was 8 mg/L.

On to `[H]/N=C(/N)N[C@H]1[C@H](O)[C@@H](O)[C@H](O[C@@H]2O[C@@H](C)[C@](O)(C=O)[C@H]2O[C@@H]2O[C@@H](CO)[C@H](O)[C@@H](O)[C@@H]2NC)[C@@H](N/C(N)=N\[H])[C@@H]1O` [Streptomycin], for which the “MIC for M. Bovis BCG ΔMtpA + MspA” value in assay [1] worked out at 0.32 mg/L. Moreover, in assay [2], the “MIC for M. Bovis BCG ΔMtpA” value is 0.64 mg/L and the Resistance factor is 4. Also, the MIC in assay [3] (wild-type strain) worked out at 0.16 mg/L (≈ 0.275 µM). For the same molecule, the “MIC for M. Bovis BCG ΔMtpA + MtpA” value in assay [4] came to 0.32 mg/L.

`CN(C)[C@@H]1C(O)=C(C(N)=O)C(=O)[C@@]2(O)C(O)=C3C(=O)c4c(O)cccc4[C@@](C)(O)[C@H]3C[C@@H]12` [Tetracycline] gave an MIC in assay [3] of 31.2 mg/L (≈ 70.3 µM).

In the case of `CC[C@H]1OC(=O)[C@H](C)[C@@H](O[C@H]2C[C@@](C)(OC)[C@@H](O)[C@H](C)O2)[C@H](C)[C@@H](O[C@@H]2O[C@H](C)C[C@H](N(C)C)[C@H]2O)[C@](C)(OC)C[C@@H](C)C(=O)[C@H](C)[C@@H](O)[C@]1(C)O` [Clarithromycin], the “MIC for M. Bovis BCG ΔMtpA + MspA” value in assay [1] was 0.5 mg/L. Further, in assay [2], the “MIC for M. Bovis BCG ΔMtpA” value was above 2 mg/L and the Resistance factor is listed as above 16. In assay [3] (wild-type strain), the MIC was 0.125 mg/L (≈ 0.167 µM). In addition, in assay [4], the “MIC for M. Bovis BCG ΔMtpA + MtpA” value was 0.25 mg/L.

With `CN[C@H](CC(C)C)C(=O)N[C@H]1C(=O)N[C@@H](CC(N)=O)C(=O)N[C@H]2C(=O)N[C@H]3C(=O)N[C@H](C(=O)N[C@H](C(=O)O)c4cc(O)cc(O)c4-c4cc3ccc4O)[C@H](O)c3ccc(c(Cl)c3)Oc3cc2cc(c3O[C@@H]2O[C@H](CO)[C@@H](O)[C@H](O)[C@H]2O[C@H]2C[C@](C)(N)[C@H](O)[C@H](C)O2)Oc2ccc(cc2Cl)[C@H]1O` [Vancomycin], in assay [1], the “MIC for M. Bovis BCG ΔMtpA + MspA” value stood at 10 mg/L. Moreover, in assay [2], the “MIC for M. Bovis BCG ΔMtpA” value was found to be 20 mg/L and the Resistance factor is on record as 4. The molecule also showed an MIC in assay [3] of 5 mg/L (≈ 3.45 µM). In assay [4], the “MIC for M. Bovis BCG ΔMtpA + MtpA” value is 10 mg/L.

Take `CC[C@@H](CO)NCCN[C@@H](CC)CO` [Ethambutol]: in assay [1], the “MIC for M. Bovis BCG ΔMtpA + MspA” value amounted to 0.125 mg/L. For the same molecule, in assay [2], the “MIC for M. Bovis BCG ΔMtpA” value is above 1 mg/L; the “change of resistance / MIC in the ΔMtpA mutant, in words” value is given as “more than eight-fold”; the Resistance factor is above 8. Further, the MIC in assay [3] (wild-type strain) is 0.125 mg/L (≈ 0.612 µM). Besides, the “MIC for M. Bovis BCG ΔMtpA + MtpA” value in assay [4] was 0.125 mg/L.

`CC[C@H]1OC(=O)[C@H](C)[C@@H](O[C@H]2C[C@@](C)(OC)[C@@H](O)[C@H](C)O2)[C@H](C)[C@@H](O[C@@H]2O[C@H](C)C[C@H](N(C)C)[C@H]2O)[C@](C)(O)C[C@@H](C)C(=O)[C@H](C)[C@@H](O)[C@]1(C)O` [Erythromycin A]: the “MIC for M. Bovis BCG ΔMtpA + MspA” value in assay [1] was determined as 32 mg/L. Moreover, the Resistance factor in assay [2] is listed as above 16. For the same molecule, the MIC in assay [3] (wild-type strain) came to 16 mg/L (≈ 21.8 µM). Besides, the “MIC for M. Bovis BCG ΔMtpA + MtpA” value in assay [4] worked out at 16 mg/L.

Turning to `NNC(=O)c1ccncc1` [Isoniazid], the “MIC for M. Bovis BCG ΔMtpA + MspA” value in assay [1] turned out to be 0.25 mg/L. In addition, in assay [2], the “MIC for M. Bovis BCG ΔMtpA” value is above 1 mg/L; the “change of resistance / MIC in the ΔMtpA mutant, in words” value was “more than eight-fold”; the Resistance factor is recorded as above 4. Besides, the MIC in assay [3] (wild-type strain) stood at 0.25 mg/L (≈ 1.82 µM).

B1: N-terminal domain of MtpA (aa 49-444): truncated N-terminal domain of MtpA, codon optimized, Strep-, HA- and His-tagged, purified from E. coli (protein, UniProt O05442 49-444, looked up, fragment)
chain: GAVFGRSYDGSAAALVQAMSVARNGLCNLGDGVRMSAHNYSLAEAMSDVAGRAAPLPAPPPSGCVGVGAPPSAVGGGGGAPKGWGWVAPYIGMIWPNGDSTKLRAAAVAWRSAGTQFALTEIQSTAGPMGVIRAQQLPEAGLIESAFADAYASTTAVVGQCHQLAAQLDAYAARIDAVHAAVLDLLARICDPLTGIKEVWEFLTDQDEDEIQRIAHDIAVVVDQFSGEVDALAAEITAVVSHAEAVITAMADHAGKQWDRFLHSNPVGVVIDGTGQQLKGFGEEAFGMAKDSWDLGPLRASIDPFGWYRSWEEMLTGMAPLAGLGGENAPGVVESWKQFGKSLIHWDEWTTNPNEALGKTVFDAATLALPGGPLSKLGSKGRDILAGVRGLKERLE
modifications: Strep, HA and His tags
notes: truncated N-terminal domain of MtpA, codon optimized, Strep-, HA- and His-tagged, purified from E. coli
B1: in assay [7], the “single channel conductance of protein purified from E. coli compared to that purified from M. smegmatis” value is “almost identical”.

B2: N-terminal domain of MtpA: N-terminal domain (aa 1-444) of MtpA (Rv3903c), HA- and His-tagged, expressed in and purified from M. smegmatis (protein, UniProt O05442 1-444, looked up, fragment)
chain: MAPLAVDPAALDSAGGAVVAAGAGLGAVISSLTAALAGCAGMAGDDPAGAVFGRSYDGSAAALVQAMSVARNGLCNLGDGVRMSAHNYSLAEAMSDVAGRAAPLPAPPPSGCVGVGAPPSAVGGGGGAPKGWGWVAPYIGMIWPNGDSTKLRAAAVAWRSAGTQFALTEIQSTAGPMGVIRAQQLPEAGLIESAFADAYASTTAVVGQCHQLAAQLDAYAARIDAVHAAVLDLLARICDPLTGIKEVWEFLTDQDEDEIQRIAHDIAVVVDQFSGEVDALAAEITAVVSHAEAVITAMADHAGKQWDRFLHSNPVGVVIDGTGQQLKGFGEEAFGMAKDSWDLGPLRASIDPFGWYRSWEEMLTGMAPLAGLGGENAPGVVESWKQFGKSLIHWDEWTTNPNEALGKTVFDAATLALPGGPLSKLGSKGRDILAGVRGLKERLE
modifications: HA and His tags
notes: N-terminal domain (aa 1-444) of MtpA (Rv3903c), HA- and His-tagged, expressed in and purified from M. smegmatis
In the case of B2, in assay [7], the “most frequent (main) single channel conductance” value amounted to 4.0±0.2 nS.
